Measured values as given in patent US6534524B1, “Indazole compounds and pharmaceutical compositions for inhibiting protein kinases, and methods for their use” (Agouron Pharmaceuticals, Inc., priority 1999, dated 2003).

How the values were obtained:
[1] = molecular target: unphosphorylated VEGF-R2Δ50 (FLVK) (Homo sapiens, UniProt P35968, DEL940-989/E990V); assay: VEGF-R2 coupled spectrophotometric assay, unphosphorylated VEGF-R2Δ50 (FLVK); conditions: FLVK Ki, Table 1
[2] = tested on: human umbilical vein endothelial cells (HUVEC); assay: HUVEC proliferation assay (VEGF-stimulated, MTT); type: cell-based; conditions: Homo sapiens, HUVEC; read-out: HUVEC IC50
CDK4/Cyclin D3 complex = CDK4/Cyclin D3 complex (Homo sapiens, UniProt P11802); assay: CDK4/Cyclin D assay ([32P]ATP, Rb fragment)
CDK2/Cyclin A = CDK2/Cyclin A (Homo sapiens, UniProt P24941); assay: CDK2/Cyclin A assay ([32P]ATP, Rb fragment); type: biochemical
human CHK1 (FL-CHK1) = molecular target: T1, human CHK1 (FL-CHK1) (Homo sapiens, UniProt O14757); assay: CHK1 assay (coupled spectrophotometric, Syntide-2); type: biochemical; conditions: Table 1
T1 construct: C-terminally His-tagged full-length human CHK1 (FL-CHK1); made in house; host or cells: baculovirus/insect cell system
T1 sequence (O14757 1-476): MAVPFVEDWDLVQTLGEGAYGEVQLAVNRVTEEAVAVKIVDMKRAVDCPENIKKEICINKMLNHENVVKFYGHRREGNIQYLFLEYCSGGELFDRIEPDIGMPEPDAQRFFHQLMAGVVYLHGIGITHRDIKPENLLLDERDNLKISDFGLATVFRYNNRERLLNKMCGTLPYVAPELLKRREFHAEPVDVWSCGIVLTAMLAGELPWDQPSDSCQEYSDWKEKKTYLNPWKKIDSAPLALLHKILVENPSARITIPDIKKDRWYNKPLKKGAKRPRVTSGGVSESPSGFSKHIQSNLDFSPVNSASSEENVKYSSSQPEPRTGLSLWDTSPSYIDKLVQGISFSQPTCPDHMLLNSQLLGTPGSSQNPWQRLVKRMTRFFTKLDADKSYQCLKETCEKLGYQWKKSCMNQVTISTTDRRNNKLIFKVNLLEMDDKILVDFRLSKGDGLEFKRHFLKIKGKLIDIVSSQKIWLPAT
From the text: CHK1 Construct for Assay: C-terminally His-tagged full-length human CHK1 (FL-CHK1) was expressed using the baculovirus/insect cell system. […] The protein was purified by conventional chromatographic techniques.
The production of ADP from ATP that accompanies phosphoryl transfer to the synthetic substrate peptide Syntide-2 ([…]) was coupled to oxidation of NADH using phosphoenolpyruvate (PEP) through the actions of pyruvate kinase (PK) and lactic dehydrogenase (LDH). The oxidation of NADH was monitored by following the decrease of absorbance at 340 nm (ε340=6.22 cm^−1 mM^−1) using a HP8452 spectrophotometer. […] Assays were initiated with 10 nM of FL-CHK1. Ki values were determined by measuring initial enzyme activity in the presence of varying concentrations of test compounds. The data were analyzed using Enzyme Kinetic and Kaleidagraph software.

human FGF-R1 = human FGF-R1 (Homo sapiens, UniProt P11362, C488A/C584S/L457V); assay: FGF-R spectrophotometric assay
[3] = molecular target: phosphorylated VEGF-R2Δ50 (FLVK-P) (Homo sapiens, UniProt P35968, DEL940-989/E990V); assay: VEGF-R2 coupled spectrophotometric assay, phosphorylated VEGF-R2Δ50 (FLVK-P)
phosphorylated VEGF-R2Δ50 (FLVK-P), sequence (P35968 with tags, fused parts or gaps DEL940-989/E990V limits assumed): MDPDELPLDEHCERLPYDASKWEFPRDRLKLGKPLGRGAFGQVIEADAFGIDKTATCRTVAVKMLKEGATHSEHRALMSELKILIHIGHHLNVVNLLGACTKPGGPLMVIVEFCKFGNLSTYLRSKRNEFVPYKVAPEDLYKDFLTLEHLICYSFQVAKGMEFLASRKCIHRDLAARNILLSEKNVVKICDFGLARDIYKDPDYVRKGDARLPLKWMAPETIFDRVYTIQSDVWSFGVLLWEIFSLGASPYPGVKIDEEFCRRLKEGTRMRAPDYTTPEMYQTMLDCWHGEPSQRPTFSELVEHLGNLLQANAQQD

CDK4/Cyclin D3 complex, sequence (P11802 whole entry, the tested form may be a part): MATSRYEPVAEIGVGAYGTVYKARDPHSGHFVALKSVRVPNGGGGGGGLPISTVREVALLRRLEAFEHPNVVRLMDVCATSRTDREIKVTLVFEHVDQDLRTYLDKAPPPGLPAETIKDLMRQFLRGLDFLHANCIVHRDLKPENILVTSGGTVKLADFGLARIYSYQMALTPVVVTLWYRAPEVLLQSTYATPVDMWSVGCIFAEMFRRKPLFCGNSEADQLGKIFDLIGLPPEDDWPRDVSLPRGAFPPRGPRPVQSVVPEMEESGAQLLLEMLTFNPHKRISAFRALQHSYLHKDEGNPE
CDK4/Cyclin D3 complex, sequence (P30281 whole entry partner, the tested form may be a part): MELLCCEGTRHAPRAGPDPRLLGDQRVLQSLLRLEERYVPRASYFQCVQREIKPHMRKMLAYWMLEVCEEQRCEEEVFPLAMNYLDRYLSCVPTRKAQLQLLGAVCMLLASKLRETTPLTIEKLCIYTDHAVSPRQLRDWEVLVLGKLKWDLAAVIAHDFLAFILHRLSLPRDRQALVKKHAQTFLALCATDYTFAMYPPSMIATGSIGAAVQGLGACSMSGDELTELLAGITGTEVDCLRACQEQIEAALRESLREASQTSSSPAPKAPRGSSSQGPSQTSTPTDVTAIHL
human FGF-R1, sequence (P11362 456-766 L457V/C488A/C584S): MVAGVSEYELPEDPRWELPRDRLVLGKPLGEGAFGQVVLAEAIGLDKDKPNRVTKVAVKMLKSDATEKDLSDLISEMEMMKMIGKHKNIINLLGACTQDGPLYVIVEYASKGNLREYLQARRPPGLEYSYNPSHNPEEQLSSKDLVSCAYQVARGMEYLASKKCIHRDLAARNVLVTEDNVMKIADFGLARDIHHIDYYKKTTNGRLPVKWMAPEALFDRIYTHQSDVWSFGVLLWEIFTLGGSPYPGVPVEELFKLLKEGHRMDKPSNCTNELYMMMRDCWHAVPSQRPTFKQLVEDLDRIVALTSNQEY
unphosphorylated VEGF-R2Δ50 (FLVK), sequence (P35968 with tags, fused parts or gaps DEL940-989/E990V limits assumed): as the sequence (P35968 with tags, fused parts or gaps DEL940-989/E990V limits assumed) above

Structure (SMILES)	Ki [1]	Ki (CDK4/Cyclin D3 complex)	Ki (human FGF-R1)	Ki [3]	other results
Oc1ccc(-c2ccc3c(/C=C/c4ccccc4)n[nH]c3c2)cc1OCc1ccccc1 [Example 1(b), 3-(E-Styryl)-6-(3-benzyloxy-4-hydroxy-phenyl)-1H-indazole]	2.2 nM	1300 nM	–	–	IC50 [2]: > 1000 nM; Ki (CDK2/Cyclin A; Table 1): 4 µM; Ki (human CHK1 (FL-CHK1); read-out: CHK-1 Ki): 1400 nM
COc1cc(-c2ccc3c(-c4ccc5ccccc5c4)n[nH]c3c2)ccc1O [Example 2(a), 3-(Naphthalen-2-yl)-6-(3-methoxy-4-hydroxy-phenyl)-1H-indazole]	40 nM	1600 nM	–	–	IC50 [2]: > 1000 nM; Ki (CDK2/Cyclin A; Table 1): 0.61 µM; inhibition at 20 µM (human CHK1 (FL-CHK1); read-out: CHK-1 % inhibition, @20 μM): 61%
COc1cc(-c2ccc3c(-c4cc(OC)c(OC)c(OC)c4)n[nH]c3c2)ccc1O [Example 2(c), 3-(3,4,5-Trimethoxyphenyl)-6-(3-methoxy-4-hydroxy-phenyl)-1H-indazole]	2600 nM	26000 nM	–	–	Ki (CDK2/Cyclin A; Table 1, μM): 50 µM
Cc1cccc(C(=O)Nc2cccc(Oc3ccc4c(/C=C/c5ccccc5)n[nH]c4c3)c2)c1 [Example 5(b), 3-Methyl-N-[3-(3-styryl-1h-indazol-6-yloxy)-phenyl]-benzamide]	–	–	14 nM	–	–
Cc1cccc(C(=O)Nc2cccc(Oc3ccc4c(-c5cc6ccccc6[nH]5)n[nH]c4c3)c2)c1 [Example 6(b)]	–	–	–	0.15 nM	–
CN(c1cccc(N)c1)c1ccc2c(/C=C/c3ccccc3)n[nH]c2c1 [Example 11, N-Methyl-N-(3-styryl-1H-indazol-6-yl)-benzene-1,3-diamine]	12 nM	–	34000 nM	–	–
CN(c1cccc(N)c1)c1ccc2c(/C=C/c3ccc4c(c3)OCO4)n[nH]c2c1 [Example 15, N-[3-(2-Benzo[1,3]dioxol-5-yl-vinyl)-1H-indazol-6-yl]-N-methyl-benzene-1,3-diamine]	–	–	–	15 nM	–
CN(C)c1cccc(C(=O)Nc2cccc(N(C)c3ccc4c(/C=C/c5ccc6c(c5)OCO6)n[nH]c4c3)c2)c1 [Example 16(c), N-(3-{[3-(2-Benzo[1,3]dioxol-5-yl-vinyl)-1H-indazol-6-yl]-methyl-amino}-phenyl)-3-dimethylamino-benzamide]	–	–	–	1.1 nM	–
CSc1cc(O)ccc1-c1ccc2c(-c3nc4ccccc4[nH]3)n[nH]c2c1 [Example 24(k), 3-1H-Benzoimidazol-2-yl-6-(2-methylsulfanyl-4-hydroxyphenyl)-1H-indazole]	–	7.2 nM	160 nM	–	Ki (CDK2/Cyclin A; Table 2): 0.056 µM
